Patent US4833242A, “Cephalosporin derivatives and salts thereof” (Daiichi Seiyaku Co., Ltd., priority 1984, dated 1989)
Values after ≈ are worked out from the molar mass of the structure shown. Where a name gives a salt, the structure may show the parent alone.

Legend:
[1] = test system: E. coli, NIHJ; assay: Minimum Inhibitory Concentration, broth dilution method; assay type: cell-based; settings: Escherichia coli, 10^6 cells/ml, 37° C., 18 hours
Protocol: (§1) |Minimum Inhibitory Concentration (MIC, μg/ml) |(Broth dilution method, inoculated amount: 10^6 cells/ml, incubated |at 37° C. for 18 hours)

[2] = test system: Pr. vulgaris, 08601; assay: as above; assay type: cell-based; settings: Proteus vulgaris, 10^6 cells/ml, 37° C., 18 hours
Protocol: as §1

[3] = test system: Ps. aeruginosa, 32104; assay: as above; assay type: cell-based; settings: Pseudomonas aeruginosa, 10^6 cells/ml, 37° C., 18 hours
Protocol: as §1

[4] = test system: Ps. aeruginosa, 32121; assay: as above; assay type: cell-based; settings: Pseudomonas aeruginosa, 10^6 cells/ml, 37° C., 18 hours
Protocol: as §1

[5] = test system: Ps. aeruginosa, 32234; assay: as above; assay type: cell-based; settings: Pseudomonas aeruginosa, 10^6 cells/ml, 37° C., 18 hours
Protocol: as §1

[6] = test system: Ps. putida, IID 5121; assay: as above; assay type: cell-based; settings: Pseudomonas putida, IID5121, 10^6 cells/ml, 37° C., 18 hours
Protocol: as §1

[7] = test system: S. aureus, 209P; assay: as above; assay type: cell-based; settings: Staphylococcus aureus, 10^6 cells/ml, 37° C., 18 hours
Protocol: as §1

[8] = test system: Ser. marcescens, 10104; assay: as above; assay type: cell-based; settings: Serratia marcescens, 10^6 cells/ml, 37° C., 18 hours
Protocol: as §1

[9] = acute toxicity, i.v. in mice; settings: mouse, in vivo, iv
[10] = test system: male rats; assay: repeated intravenous administration to male rats for 10 consecutive days; assay type: in vivo; settings: intravenous, 100, 300 or 1,000 mg/kg
Source text: The compounds of this invention are also characterized by low toxicity and, therefore, have a wide safety margin.

| Structure (SMILES) | MIC [1] [µg/mL] | MIC [2] [µg/mL] | MIC [3] [µg/mL] | MIC [4] [µg/mL] | MIC [5] [µg/mL] | MIC [6] [µg/mL] | MIC [7] [µg/mL] | MIC [8] [µg/mL] | LD50 [9] [mg/kg] | body weight, clinical examinations, weight of various organs and histological findings [10] |
| --- | --- | --- | --- | --- | --- | --- | --- | --- | --- | --- |
| CO/N=C(\C(=O)N[C@@H]1C(=O)N2C(C(=O)O)=C(COC(C)=O)CS[C@H]12)c1csc(N)n1 [Cefotaxime, Sodium 7β-[2-(2-aminothiazol-4-yl)-2-methoxyiminoacetamido]-3-acetoxymethyl-3-cephem-4-carboxylate (syn isomer), reference compound] | < 0.1 | < 0.1 | 25 | 12.5 | 12.5 | 50 | 3.13 | 0.39 | – | – |
| CO/N=C(\C(=O)N[C@@H]1C(=O)N2C(C(=O)[O-])=C(C[n+]3ccc(-n4ccnc4)cc3)CS[C@H]12)c1csc(N)n1 [Compound A, 7β-[2-(2-Aminothiazol-4-yl)-2-methoxyiminoacetamido]-3-[4-(imidazol-1-yl)-1-pyridinio]methyl-3-cephem-4-carboxylate trihydrochloride (syn isomer)] | < 0.1 | < 0.1 | 1.56 | 1.56 | 1.56 | 1.56 | 0.39 | < 0.1 | 2000 to 4000 | – |
| CO/N=C(\C(=O)N[C@@H]1C(=O)N2C(C(=O)[O-])=C(C[n+]3ccc(-n4cncn4)cc3)CS[C@H]12)c1csc(N)n1 [Compound B, 7β-[2-(2-Aminothiazol-4-yl)-2-methoxyiminoacetamido]-3-[4-(1,2,4-triazol-1-yl)-1-pyridinio]methyl-3-cephem-4-carboxylate dihydrochloride (syn isomer)] | < 0.1 | < 0.1 | 1.56 | 0.78 | 0.78 | 6.25 | 0.78 | < 0.1 | – | – |
| CO/N=C(\C(=O)N[C@@H]1C(=O)N2C(C(=O)[O-])=C(C[n+]3ccc(-c4ncc[nH]4)cc3)CS[C@H]12)c1csc(N)n1 [Compound C, 7β-[2-(2-Aminothiazol-4-yl)-2-methoxyiminoacetamido]-3-[4-(imidazol-2-yl)-1-pyridinio]methyl-3-cephem-4-carboxylate trihydrochloride (syn isomer)] | < 0.1 | < 0.1 | 25 | 12.5 | 1.56 | 12.5 | 0.78 | < 0.1 | – | – |
| CO/N=C(\C(=O)N[C@@H]1C(=O)N2C(C(=O)[O-])=C(C[n+]3ccc(-c4ncco4)cc3)CS[C@H]12)c1csc(N)n1 [Compound D, 7β-[2-(2-Aminothiazol-4-yl)-2-methoxyiminoacetamido]-3-[4-(oxazol-2-yl)-1-pyridinio]methyl-3-cephem-4-carboxylate (syn isomer)] | < 0.1 | < 0.1 | 3.13 (≈ 5.78 µM) | 1.56 (≈ 2.88 µM) | 1.56 (≈ 2.88 µM) | 3.13 (≈ 5.78 µM) | 0.78 (≈ 1.44 µM) | < 0.1 | > 4000 | – |
| CO/N=C(\C(=O)N[C@@H]1C(=O)N2C(C(=O)[O-])=C(C[n+]3ccc(-c4cnco4)cc3)CS[C@H]12)c1csc(N)n1 [Compound E, 7β-[2-(2-Aminothiazol-4-yl)-2-methoxyiminoacetamido]-3-[4-(oxazol-5-yl)-1-pyridinio]methyl-3-cephem-4-carboxylate (syn isomer)] | < 0.1 | < 0.1 | 1.56 (≈ 2.88 µM) | 0.78 (≈ 1.44 µM) | 0.78 (≈ 1.44 µM) | 3.13 (≈ 5.78 µM) | 0.39 (≈ 0.72 µM) | < 0.1 | > 4000 | no abnormality were observed |
| CO/N=C(\C(=O)N[C@@H]1C(=O)N2C(C(=O)[O-])=C(C[n+]3ccc(-c4nnco4)cc3)CS[C@H]12)c1csc(N)n1 [Compound F, 7β-[2-(2-Aminothiazol-4-yl)-2-methoxyiminoacetamido]-3-[4-(1,3,4-oxadiazol-2-yl)-1-pyridinio]-methyl-3-cephem-4-carboxylate (syn isomer)] | < 0.1 | 0.1 (≈ 0.184 µM) | 0.78 (≈ 1.44 µM) | 0.78 (≈ 1.44 µM) | 0.78 (≈ 1.44 µM) | 1.56 (≈ 2.88 µM) | 0.39 (≈ 0.719 µM) | < 0.1 | > 4000 | – |
| CO/N=C(\C(=O)N[C@@H]1C(=O)N2C(C(=O)[O-])=C(C[n+]3cccc(-c4cnco4)c3)CS[C@H]12)c1csc(N)n1 [Compound G, 7β-[2-(2-Aminothiazol-4-yl)-2-methoxyiminoacetamido]-3-[3-(oxazol-5-yl)-1-pyridinio]methyl-3-cephem-4-carboxylate (syn isomer)] | < 0.1 | 0.1 (≈ 0.185 µM) | 3.13 (≈ 5.78 µM) | 1.56 (≈ 2.88 µM) | 1.56 (≈ 2.88 µM) | 12.5 (≈ 23.1 µM) | 0.39 (≈ 0.72 µM) | < 0.1 | – | – |
| CO/N=C(\C(=O)N[C@@H]1C(=O)N2C(C(=O)[O-])=C(C[n+]3ccc(-c4csnn4)cc3)CS[C@H]12)c1csc(N)n1 [Compound H, 7β-[2-(2-Aminothiazol-4-yl)-2-methoxyiminoacetamido]-3-[4-(1,2,3-thiadiazol-4-yl)-1-pyridinio]methyl-3-cephem-4-carboxylate dihydrochloride (syn isomer)] | < 0.1 | < 0.1 | 1.56 | 1.56 | 0.78 | 12.5 | 0.39 | < 0.1 | – | – |
